Our source for the melting point values is a melting point compilation (Tetko et al.; mined from patent text by program, amines drawn as free bases though some values may be those of a salt).

By melting point is commonly meant the temperature, or range, at which the solid turns liquid. Compound `CNC(=O)C(=NO)c1ccccc1C` registered a melting point of 160 to 161 °C. The value for `Cc1c(NC(=O)c2ccc(C(C)(C)C)cc2)cccc1-c1cc(Br)c(=O)n(C)c1` was 149 to 151 °C. In turn, `NC(=S)Nc1ccccc1-c1cccc(F)c1` had a melting point of 157 to 159 °C. On to `CSc1ncc2c(Cl)ccn2n1`, for which the melting point fell in the range of 107 to 108 °C. The value for `CN(C)c1cccc2c1C(=O)NS2(=O)=O` was 228 to 229 °C; that for `OC1CC=C(c2ccc(C(F)(F)F)cc2)CC1` (stereo not drawn) was 104 to 106 °C. The value for `COC(=O)[C@@]12CO[C@@H](C(C)(C)C)N1C(=O)[C@@H](C)C2` was 107 to 108 °C; that for `CCNS(=O)(=O)CC(=O)C1=C(C)NC(C)=C(C(=O)OC(C)C)C1c1cccc([N+](=O)[O-])c1` (stereo not drawn) was 140 to 142 °C. The value for `CCOC1CC2(C)C(CCC3C4CC(O)C(Br)C4(C)CC(N(C)C)C32)CC1O` (stereo not drawn) was 173 to 174 °C.

Turning to `Cc1cccc(CNc2nc(NC[C@@H](C)O)nc3c2ncn3C(C)C)c1O`, the melting point lay in the range of 145 to 147 °C. `COc1cc(C(C)C)c2c(c1)S(=O)(=O)N(COC(=O)c1c(C)cc(C)cc1C)C2=O` registered a melting point of 137 to 138 °C. The value for `COC(=O)c1ccc(C(=O)NS(=O)(=O)c2ccc(C(=O)NCCc3ccc(OC)cc3)cc2)cn1` was 240 to 242 °C; that for `N[C@H](Cc1ccc(C(F)(F)F)cc1)[C@@H](O)c1cccc(Cl)n1` (racemic) was 89 to 90 °C. Then `Fc1ccccc1-c1c(OCc2nc3n(n2)CCCC3)nn2c(-c3ccccc3F)nncc12`, with 150 to 152 °C; and `CCN1C(=O)C(=O)N(c2ccc(F)cc2)C1=S`, with 172 to 174 °C. `CC1(c2ccccc2)Cc2cc(OCC#N)c(Cl)c(Cl)c2C1=O` (stereo not drawn) yielded a melting point of 163 to 165 °C. For `Nc1cc(F)c(NCC(O)CO)cc1[N+](=O)[O-]` (stereo not drawn), the melting point is 129 to 130 °C. With `Nc1ncc(-c2cccs2)nc1C(=O)Nc1cccnc1`, the melting point was 178 to 189 °C. In turn, `CCOC(=O)C1C(=O)Nc2ccccc2SC1c1ccc(OC)cc1` (stereo not drawn) showed a melting point of 192 °C. Then `CC(C)c1nc(N(C)S(C)(=O)=O)nc(-c2ccc(F)cc2)c1Br`, with 122 to 125 °C; and `O=C1c2ccccc2S(=O)(=O)N1CCNCC1COc2ccccc2O1` (stereo not drawn), with 181 °C; and `O=C(O)[C@@H]1CSC(=O)N1Cc1ccccc1`, with 95 to 97 °C.

`CCOC(=O)c1ccc2sc(C=Cc3cccnc3)c(C)c2c1` returned a melting point of 123 to 124 °C.

`CC(C)(C)[Si](C)(C)O[C@H](/C=C/[C@@H]1[C@H]2CC(=O)O[C@H]2C[C@H]1O[Si](C)(C)C(C)(C)C)COc1cccc(C(F)(F)F)c1`: the melting point was 91 to 93 °C. The value for `CN1CCN(C(=O)c2cc3ccnc(Cl)c3[nH]2)CC1` was 230 to 232 °C. Then `O=C(NCP(=O)(O)O)c1ccccc1`, with 171 to 173 °C; and `COc1ccc(CN2CCC(c3cn(Cc4ccoc4)c4cc(F)ccc34)CC2)cc1C(=O)O`, with 228 to 229 °C; and `COC(=O)NNc1cc(Cl)c(C)c2c1OC(C)C2` (stereo not drawn), with 112 to 114 °C.

Compound `COc1ccc(C2=NN(CC(=O)Nc3ccc(C4=NNC(=O)CC4C)cc3)C(=O)C3CC=CCC23)cc1OC` (stereo not drawn) had a melting point of 139 to 141 °C.

Compound `CCOC(=O)N1C(=O)[C@H](O)[C@@H]1c1ccccc1` returned a melting point of 112 to 113 °C. The value for `O=C(CCl)Nc1ccc2c(c1)CC(=O)N2` was 166 to 170 °C. The value for `O=C1N(CCCCCl)CCN1c1ccccc1` was 47.5 to 49 °C. `CC1CC(c2c(S(C)(=O)=O)ccc(C(=O)c3cnn(C)c3O)c2Cl)=NO1` (stereo not drawn) had a melting point of 230 to 235 °C. Then `CC(=NC1CCCCC1)NC12CC3CC(CC(C3)C1)C2`, with 185 to 187 °C; and `COc1nc(N2CCOCC2)cnc1NS(=O)(=O)c1cccc(Cl)c1Cl`, with 167 to 168 °C. Then `COc1ccc2c(c1O)CCN(C=O)[C@@H]2c1cc(OC)c(OC)c(OC)c1`, with 190 to 192 °C. On to `Cc1cc(C2(C(F)(F)F)CC2(C#N)C#N)ccc1NC(=O)c1cccc(I)c1C(=O)NC(C)C` (stereo not drawn), for which the melting point lay in the range of 218 to 221 °C. With `CCNC(=O)N1c2ccccc2-c2noc3c2C1CCC3` (stereo not drawn), the melting point was determined as 189 °C. Consider `CCCCCCCCCCCCCCCCCCOC(=O)CCc1cc(C(C)(C)C)c(OP2Nc3ccccc3O2)c(C(C)(C)C)c1` (stereo not drawn), for which the melting point was 58 to 65 °C. Then `CCCC1C(C(=O)OCC)C(O)(C(F)(F)F)OC(O)(C(F)(F)F)C1C(=O)OCC` (stereo not drawn), with 128 to 132 °C.

With `Nc1cc(F)ccc1C=C(Br)Br`, the melting point fell in the range of 72 to 73 °C. Regarding `CON=Cc1ccc2c(c1)c1c(n2Cc2cccc(F)c2)CCC(NC(=O)C(C)C)C1` (stereo not drawn), the melting point lay within 180 to 182 °C. `Cc1ccc(N2CN(C(C)(C)C)C3=NN=CC3=C2N)cc1`: the melting point lay within 203 to 204 °C.

In turn, `CN=C1SC2Cc3ccc(S(C)(=O)=O)cc3C2(O)N1C` (stereo not drawn) gave a melting point of 158 °C. `ClC(Cl)(Cl)c1nnc(-c2cccc3ccccc23)o1` returned a melting point of 90 to 91.5 °C.

Take `CCCc1c2nc(C(=O)OCC)cc(OCC)c2cc2c(=O)cc(C(=O)OCC)oc12`: the melting point fell in the range of 190 to 192 °C.

On to `CCc1nc2ccc(C(C(C)C)n3ccnc3)cc2[nH]c1=O` (stereo not drawn), for which the melting point is 204 °C.

`CN(C)S(=O)(=O)c1cccc(NC(=O)c2cnn3c(C(F)(F)F)cc(-c4ccc(C(F)(F)F)cc4)nc23)c1` displayed a melting point of 210 °C. `Cc1ccc(-c2c(O)c(=O)c3ccccc3n2C)cc1` had a melting point of 216 to 218 °C. For the compound `CN(SN1CCOCC1)C(=O)Nc1ccc(Cl)c(Cl)c1`, the melting point stood at 142 °C. Then `CCCCCCCCCCC(Oc1ccc(C2=CCCCCCC2)cc1)C(=O)O` (stereo not drawn), with 45 to 48 °C; and `CC(CCCc1ccccc1)Oc1cc(O)c2c(c1)CC(C)(C)CC2CC(N)=O` (stereo not drawn), with 67 to 72 °C. The value for `CC(C#N)Oc1cccc(CN2C(=O)c3cccc(NC(=O)c4ccc(Cl)s4)c3C2=O)c1` (stereo not drawn) was 88 °C; that for `O=C(O)CCc1cc2cc(Cl)ccc2n1S(=O)(=O)c1cccc2cccnc12` was 215 to 222 °C.

As for `CC1SC(=O)NN=C1c1cccc([N+](=O)[O-])c1` (stereo not drawn), the melting point was in the range of 169 to 172 °C.

In turn, `CNC(=O)C1CCCCN1C(=O)OC(C)(C)C` (stereo not drawn) gave a melting point of 83 to 83.5 °C. The value for `COC(=O)[C@H](Cc1ccc(OCCc2nc(-c3ccccc3)oc2C)cc1)Nc1ccccc1C(=O)c1ccccc1` was 55 to 60 °C; that for `Cc1cc(C(F)(F)F)c(-c2ccc(C[C@H](NC(=O)c3c(Cl)cccc3Cl)C(=O)O)cc2)c(=O)n1C` was 238 to 240 °C; that for `COc1cccc(-c2noc3ccsc23)c1` was 51 to 52 °C. Then `CN1CC(CCN2C(=O)c3ccccc3C2=O)Oc2ncccc2C1=O` (stereo not drawn), with 146 to 147 °C; and `CC1(C)CCC(C)(C)c2cc(C(=O)c3ccc(C(O)=NO)cc3)c(OCc3ccc(Br)cc3)cc21`, with 221 to 224 °C; and `CCCCNc1cncc(C(=NCCc2ccccc2Cl)NC#N)c1`, with 122 °C. The value for `O=C1N(c2cc(Cl)cc(Cl)c2)C(=O)C2(Cc3ccc(-c4cccnc4)cc3)CCCCN12` (stereo not drawn) was 276 °C.
